The values that follow come from patent publication US12421249B2, “Inhibitors of APOL1 and methods of using same” (Vertex Pharmaceuticals Incorporated, priority 2020, dated 2025).

In one assay the target is T1, APOL1 G1 (Homo sapiens, UniProt O14791, I384M/S342G).
T1 sequence (O14791 28-398 S342G/I384M): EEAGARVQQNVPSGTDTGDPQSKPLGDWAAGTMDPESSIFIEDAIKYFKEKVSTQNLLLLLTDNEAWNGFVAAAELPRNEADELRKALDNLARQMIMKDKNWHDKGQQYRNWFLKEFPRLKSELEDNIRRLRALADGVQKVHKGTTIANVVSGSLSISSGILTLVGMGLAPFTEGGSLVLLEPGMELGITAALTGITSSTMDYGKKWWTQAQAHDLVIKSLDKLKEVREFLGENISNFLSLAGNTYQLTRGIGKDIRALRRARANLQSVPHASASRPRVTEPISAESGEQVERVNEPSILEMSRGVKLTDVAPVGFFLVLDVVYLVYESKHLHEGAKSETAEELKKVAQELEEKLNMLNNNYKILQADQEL
As to the kind of experiment: Trypanosoma brucei brucei Lysis Assay Using APOL1 Recombinant Protein (AlamarBlue viability readout). The format is cell-based. The conditions noted are these: Trypanosome Assay; for IC50: IP50 = IC50 for cell proliferation, read-out: Trypanosome Assay IP50; for Emax: read-out: Trypanosome Assay Max Activity (%). In a few lines:
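Percent viability comes from AlamarBlue (resazurin→resorufin) fluorescence interpolated on a standard curve of known parasite numbers, with no-APOL1 wells as 100%. Parasites (Lister 427 bloodstream form, 120,000/well, serum-free assay medium) meet 0.05 μg/mL APOL1 (~EC90). Compounds span a 10-point series, 0.1% DMSO final.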
In general terms: The colour change of resazurin is a common sign of viable cells or microbes.

The target in a further assay is T2, APOL1 (Homo sapiens, UniProt O14791).
T2 sequence (O14791 1-398 S342G/I384M): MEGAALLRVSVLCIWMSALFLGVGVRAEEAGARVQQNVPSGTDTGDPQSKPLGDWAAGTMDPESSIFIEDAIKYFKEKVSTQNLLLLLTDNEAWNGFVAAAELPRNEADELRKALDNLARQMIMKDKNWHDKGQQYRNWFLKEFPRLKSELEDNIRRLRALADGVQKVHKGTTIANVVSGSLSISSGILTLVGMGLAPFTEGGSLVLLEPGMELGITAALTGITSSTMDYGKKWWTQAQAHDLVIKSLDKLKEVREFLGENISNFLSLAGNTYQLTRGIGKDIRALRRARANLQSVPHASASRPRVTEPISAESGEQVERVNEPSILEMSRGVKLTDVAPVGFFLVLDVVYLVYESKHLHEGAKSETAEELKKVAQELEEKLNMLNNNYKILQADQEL
The experiment in a line: Multi-Tox Assay (MultiTox-Fluor Multiplex Cytotoxicity Assay in tet-inducible APOL1 T-REx-HEK293 cells; Table 46 does not say which APOL1 variant G0/G1/G2). The conditions noted are these: APOL1 variant not given; for IC50: IP50 = IC50 for cell proliferation. In kind it is cell-based.

For the molecule `C[C@H]1C[C@@]2(C[C@@H](c3ccc(N(C)C)nc3)N1)OCCc1cc(Cl)sc12` (racemic) [Compound 89], at APOL1 G1, the IC50 is less than 50 nM and the Emax was 101%. At APOL1, this molecule registered an IC50 of less than 50 nM.
Consider `COCCn1cc([C@@H]2C[C@]3(C[C@H](C)N2)OCCc2cc(Cl)sc23)cn1` (racemic) [Compound 90], for which the IC50 at APOL1 G1 and against APOL1 was less than 50 nM in each case. The Emax on APOL1 G1 came out at 104%.
For the molecule `C[C@H]1C[C@@]2(C[C@@H](c3cccnn3)N1)OCCc1cc(Cl)sc12` (racemic) [Compound 92], at APOL1 G1, the IC50 was less than 50 nM and the Emax stood at 103%. The same molecule returned an IC50 against APOL1 of less than 50 nM.
Turning to `C[C@H]1C[C@@]2(C[C@@H](c3ccnnc3)N1)OCCc1cc(Cl)sc12` (racemic) [Compound 93], on APOL1 G1, the IC50 lay within 50 to 500 nM and the Emax is 112%. The molecule further displayed an IC50 on APOL1 of less than 50 nM.
Take `Cc1ncc([C@@H]2C[C@]3(C[C@H](C)N2)OCCc2cc(Cl)sc23)o1` (racemic) [Compound 94]: on APOL1 G1, the IC50 was less than 50 nM and the Emax turned out to be 104%. On APOL1, this molecule displayed an IC50 of less than 50 nM.
As to `C[C@H]1C[C@@]2(C[C@@H](c3cnc(NC(C)(C)CO)nc3)N1)OCCc1cc(Cl)sc12` (racemic) [Compound 95], at APOL1 G1, the IC50 lay within 50 to 500 nM and the Emax was found to be 106%. This molecule showed an IC50 at APOL1 of less than 50 nM.
For `C[C@H]1C[C@@]2(C[C@@H](c3ccon3)N1)OCCc1cc(Cl)sc12` (racemic) [Compound 96] the same measures were less than 50 nM, 104% and less than 50 nM.
As for `Cc1cc([C@@H]2C[C@]3(C[C@H](C)N2)OCCc2cc(Cl)sc23)nn1C` (racemic) [Compound 98], on APOL1 G1, the IC50 was less than 50 nM and the Emax turned out to be 110%. At APOL1, the “Multi-Tox Assay Max Activity (%)” value is on record as 99.0% and the IC50 was less than 50 nM.
With `COc1ccc([C@@H]2C[C@]3(C[C@H](C)N2)OCCc2cc(Cl)sc23)cc1O` (racemic) [Compound 99], on APOL1 G1, the IC50 is less than 50 nM and the Emax amounted to 102%. On APOL1, the “Multi-Tox Assay Max Activity (%)” value came to 99.0% and the IC50 is less than 50 nM.
For `C[C@H]1C[C@@]2(C[C@@H](c3cnn(C4CCOCC4)c3)N1)OCCc1cc(Cl)sc12` (racemic) [Compound 100], at APOL1 G1, the IC50 was less than 50 nM and the Emax stood at 99%. In addition, on APOL1, the IC50 was less than 50 nM.
In the case of `C[C@H]1C[C@@]2(C[C@@H](c3cnccn3)N1)OCCc1cc(Cl)sc12` (racemic) [Compound 101], on APOL1 G1, the IC50 was in the range of 50 to 500 nM and the Emax worked out at 114%. Also, on APOL1, the “Multi-Tox Assay Max Activity (%)” value came out at 100.0% and the IC50 is less than 50 nM.
For `CCOc1cc([C@@H]2C[C@]3(C[C@H](C)N2)OCCc2cc(Cl)sc23)ccc1O` (racemic) [Compound 102] the same measures were less than 50 nM, 112%, 99.8% and less than 50 nM.
In the case of `C[C@H]1C[C@@]2(C[C@@H](c3cnn(CC(C)(CO)CO)c3)N1)OCCc1cc(Cl)sc12` (racemic) [Compound 103], the IC50 is 50 to 500 nM on APOL1 G1 and less than 50 nM against APOL1. Further, the Emax at APOL1 G1 worked out at 118%.
On to `Cc1nc([C@@H]2C[C@]3(C[C@H](C)N2)OCCc2cc(Cl)sc23)co1` (racemic) [Compound 104], for which, on APOL1 G1, the IC50 was in the range of 50 to 500 nM and the Emax came to 100%. On APOL1, the “Multi-Tox Assay Max Activity (%)” value amounted to 99.3% and the IC50 was less than 50 nM.
For `COc1ccccc1-c1ncc([C@@H]2C[C@]3(C[C@H](C)N2)OCCc2cc(Cl)sc23)cn1` (racemic) [Compound 105] the same measures were less than 50 nM, 72%, 99.3% and less than 50 nM.
In the case of `COCc1cc([C@@H]2C[C@]3(C[C@H](C)N2)OCCc2cc(Cl)sc23)no1` (racemic) [Compound 106], the IC50 at APOL1 G1 and against APOL1 was less than 50 nM each time. Also, the Emax at APOL1 G1 was determined as 107%.
With `CCOc1ccc([C@@H]2C[C@]3(C[C@H](C)N2)OCCc2cc(Cl)sc23)cc1O` (racemic) [Compound 107], at APOL1 G1, the IC50 is less than 50 nM and the Emax is 92.5%. Further, on APOL1, the “Multi-Tox Assay Max Activity (%)” value was 99.7% and the IC50 is less than 50 nM.
On to `Cc1cc([C@@H]2C[C@]3(C[C@H](C)N2)OCCc2cc(Cl)sc23)ccc1O` (racemic) [Compound 108], for which, at APOL1 G1, the IC50 was less than 50 nM and the Emax was 94.5%. Besides, at APOL1, the “Multi-Tox Assay Max Activity (%)” value worked out at 99.0% and the IC50 was less than 50 nM.
In the case of `C[C@H]1C[C@@]2(C[C@@H](c3cccc(C(N)=O)c3)N1)OCCc1cc(Cl)sc12` (racemic) [Compound 109], at APOL1 G1, the IC50 is 50 to 500 nM and the Emax was 100%. On APOL1, the “Multi-Tox Assay Max Activity (%)” value was found to be 100.0% and the IC50 is less than 50 nM.
On to `COc1nccc([C@@H]2C[C@]3(C[C@H](C)N2)OCCc2cc(Cl)sc23)n1` (racemic) [Compound 110], for which the results for the IC50 at APOL1 G1 and on APOL1 were 50 to 500 nM and less than 50 nM, respectively. Further, the Emax on APOL1 G1 was determined as 115%.
Consider `CCC(O)Cn1cc([C@@H]2C[C@]3(C[C@H](C)N2)OCCc2cc(Cl)sc23)nn1` (mixture of isomers) [Compound 111], for which, on APOL1 G1, the IC50 was 50 to 500 nM and the Emax was found to be 98.5%. At APOL1, the “Multi-Tox Assay Max Activity (%)” value is 99.3% and the IC50 is less than 50 nM.
For `C[C@H]1C[C@@]2(C[C@@H](c3ccnc(O)c3)N1)OCCc1cc(Cl)sc12` (racemic) [Compound 112], in that order: 50 to 500 nM, 112%, 100.0% and less than 50 nM.
For `CC(=O)Nc1cccc([C@@H]2C[C@]3(C[C@H](C)N2)OCCc2cc(Cl)sc23)c1` (racemic) [Compound 113], at APOL1 G1, the IC50 lay in the range of 50 to 500 nM and the Emax was 97%. In addition, on APOL1, the “Multi-Tox Assay Max Activity (%)” value was determined as 100.0% and the IC50 is less than 50 nM.
For `C[C@H]1C[C@@]2(C[C@@H](c3cccc(NS(C)(=O)=O)c3)N1)OCCc1cc(Cl)sc12` (racemic) [Compound 115], in that order: 50 to 500 nM, 100%, 99.3% and less than 50 nM.
In the case of `Cc1nccc([C@@H]2C[C@]3(C[C@H](C)N2)OCCc2cc(Cl)sc23)n1` (racemic) [Compound 116], on APOL1 G1, the IC50 fell in the range of 50 to 500 nM and the Emax was determined as 101%. The molecule also returned an IC50 at APOL1 of less than 50 nM.
In the case of `C[C@H]1C[C@@]2(C[C@@H](c3cnn4ccccc34)N1)OCCc1cc(Cl)sc12` (racemic) [Compound 117], on APOL1 G1, the IC50 is less than 50 nM and the Emax stood at 101%. In addition, at APOL1, the “Multi-Tox Assay Max Activity (%)” value is reported as 99.0% and the IC50 is less than 50 nM.
In the case of `C[C@H]1C[C@@]2(C[C@@H](c3ccn(C)n3)N1)OCCc1cc(Cl)sc12` (racemic) [Compound 118], on APOL1 G1, the IC50 lay in the range of 50 to 500 nM and the Emax stood at 98%. In addition, at APOL1, the “Multi-Tox Assay Max Activity (%)” value was 99.3% and the IC50 is less than 50 nM.
Turning to `C[C@H]1C[C@@]2(C[C@@H](c3cc(C4CC4)n[nH]3)N1)OCCc1cc(Cl)sc12` (racemic) [Compound 120], on APOL1 G1, the IC50 lay in the range of 50 to 500 nM and the Emax stood at 91.5%. Also, at APOL1, the “Multi-Tox Assay Max Activity (%)” value is recorded as 99.0% and the IC50 is less than 50 nM.
In the case of `C[C@H]1C[C@@]2(C[C@@H](c3ccc[nH]c3=O)N1)OCCc1cc(Cl)sc12` (racemic) [Compound 121], at APOL1 G1, the IC50 is 50 to 500 nM and the Emax stood at 97.5%. Also, at APOL1, the “Multi-Tox Assay Max Activity (%)” value is recorded as 99.0% and the IC50 was less than 50 nM.
For `C[C@H]1C[C@@]2(C[C@@H](c3ccc(C(F)(F)F)nc3)N1)OCCc1cc(Cl)sc12` (racemic) [Compound 123] the same measures were less than 50 nM, 104%, 100.0% and less than 50 nM.
For `C[C@H]1C[C@@]2(C[C@@H](c3cn(C)c(=O)n(C)c3=O)N1)OCCc1cc(Cl)sc12` (racemic) [Compound 124] the same measures were 50 to 500 nM, 104%, 99.3% and 50 to 500 nM.
For `Cc1cc(O)ncc1[C@@H]1C[C@]2(C[C@H](C)N1)OCCc1cc(Cl)sc12` (racemic) [Compound 125], in that order: 50 to 500 nM, 103%, 99.7% and less than 50 nM.
